From US20250221953A1 (The University of Chicago, priority 2022, published 2025)

Key:
Mouse T cell = test: Second screen: IL-2 level of murine primary T cells; assay type: cell-based
From the text: Two preliminary screens were designed and performed.

mouse CD8^+ T cells [1] = test: RNA-sequencing of CD8+ T cells with or without TVA (also siNTC / siCreb1); assay type: cell-based; settings: 20 μM TVA, 24 h
B16F10 tumor = test: Mouse tumor model, B16F10; assay type: in vivo; settings: B16F10 tumor-bearing C57BL/6 mice on enriched diet vs control diet
Procedure: For C57BL/6 mice and TCR-a KO mice tumor model, mice were anesthetized with isoflurane, shaved the injection site, and then injected subcutaneously in the abdominal flank with 1×10^5 B16F10, MC38, or LLC1 cells, or in the mammary gland with 2×10^5 E0771 cells. C57BL/6 nude mice were injected subcutaneously in the abdominal flank with 1×10^5B16F10 cells. […] Tumors were measured the tumors using a caliper every 2-3 days. Tumor volumes were calculated using the following formula: length×width×[(length×width)^0.5]×π/6. Mice were euthanized at humane endpoints or day 11-15 for tissue collection.
The mice were treated once a day for 5 consecutive days per week for 2 weeks. Tumors were measured the tumors using a caliper every 2-3 days. Tumor volumes were calculated using the following formula: length×width×[(length×width)^0.5]×π/6. Mice were euthanized at humane endpoints.
For anti-PD-1 treatment mouse model, 6-8 weeks old C57BL/6 mice were anesthetized with isoflurane, shaved the injection site, and then injected subcutaneously in the abdominal flank with 1×10^5 B16F10 for tumor development. […] In day 3, 6, 9, 12, and 15, 250 μg anti-PD-1 (BioXCell) or IgG control (BioXCell) was injected intraperitoneally per mouse. Tumors were measured the tumors using a caliper every 2-3 days. Tumor volumes were calculated using the following formula: length×width×[(length×width)^0.5]×π/6. […]

[2] = Extraction and quantification of TVA levels by NMR (mouse serum and TIF); assay type: in vivo; settings: B16F10 tumor bearing mice, TVA-enriched diet; 1H NMR
[3] = test system: tumor-infiltrating CD8^+ T cells
Procedure: After incubation at 37° C. for 25 min on a shaking platform, the digested tumor tissues were transferred into a 70 μm mesh nylon strainer on a 50 mL conical tube, pushed through the strainer using the rubber end of a syringe plunger, and rinsed with the recommended medium. After centrifugation at 300×g for 10 min at room temperature with the brake on low, the resulting cell pellets were added 10 mL of ammonium chloride solution for incubation at room temperature for 5 minutes, followed by centrifugation at 300×g for 10 minutes at room temperature with the brake on low.
Freshly excised mouse tumor tissues were minced into small pieces (volume smaller than 1 mm^3) by scissors in PBS, digested by Collagenase IV (1 mg/mL) and DNase I (200 U/mL) at 37° C. for 20 minutes in PBS with gentle rocking. The digested tumor tissues were added 5 times volume 0.01M EDTA, filtered into new tube through 200 mesh screen (100 μm strainer), and then centrifuged at 300×g for 5 minutes at room temperature. The resulting cell pellets were re-suspended with 3 mL PBS, laid gently on 3 mL lymphocytes isolation liquid (pre-warmed to room temperature), and subjected to density gradient centrifugation (300×g, 30 minutes, room temperature, accelerate 6, decelerate 2). The middle layer of cells was moved carefully to a new tube, added PBS to 15 mL, and centrifuged (300×g, 10 minutes, room temperature). The cell pellets (lyse red cells if necessary) were designated tumor-infiltrating lymphocytes and used for following experiments.
Mouse spleens were disrupted with syringe plunger in 1 mL PBS in a 40 μm strainer filtered to a 15 mL tube, washed with PBS and centrifuged at 300×g for 5 minutes. The resulting cell pellets were re-suspended the with 2 mL red cell lysis buffer (Invitrogen), incubated at room temperature for 10 minutes, and centrifuged at 300×g for 5 minutes after adding 13 mL PBS. The resulting cell pellets was designated splenocytes and used for following experiments.
Draining lymph nodes were disrupted with syringe plunger in 1 mL PBS in a 40 μm strainer filtered to a 15 mL tube, washed with PBS, and centrifuged at 300×g for 5 minutes. The resulting cell pellets was designated LN Lymphocytes and used for following experiments.
Mouse primary cells isolated from tumor, spleen, draining lymph node were stained with fluorescent antibodies and analyzed by flow cytometry.
For experiments with live/dead criteria, cells were first stained with Fixable Viability Dyes (FVD) (Thermo Fisher Scientific) according to the manufacturer's instructions. Subsequent surface marker staining was performed in Flow Cytometry Staining Buffer (Thermo Fisher Scientific). Intracellular staining for flow panels containing nuclear proteins was performed using the eBioscience FoxP3/Transcription Factor Staining Buffer Set (Thermo Fisher Scientific) according to the manufacturer's instructions. For intracellular staining of cytoplasmic proteins, the Fixation/Permeabilization Solution Kit (BD Biosciences) was used according to the manufacturer's instructions.
For phospho antibody staining, cells were incubated with FVD (cell viability dye) for 15 minutes at room temperature in a tube, re-suspended with 200 μL pre-warmed 1×BD Phosflow Lyse/Fix buffer directly into the tube, and incubated at 37° C. for 10-15 minutes, followed by centrifugation at 300×g for 5 minutes. The resulting cell pellets were washed once with FACS buffer, permeabilized with 200 μL of BD Phosflow Perm Buffer III for 45 minutes on ice, and centrifuged at 300×g for 5 minutes.

[4] = test system: mouse primary CD8^+ T cells; test: In vitro function of activated mouse primary CD8+ T cells (cytokines, Ki-67, apoptosis, p-CREB); assay type: cell-based
Procedure: For experiments with live/dead criteria, cells were first stained with Fixable Viability Dyes (FVD) (Thermo Fisher Scientific) according to the manufacturer's instructions. Subsequent surface marker staining was performed in Flow Cytometry Staining Buffer (Thermo Fisher Scientific). Intracellular staining for flow panels containing nuclear proteins was performed using the eBioscience FoxP3/Transcription Factor Staining Buffer Set (Thermo Fisher Scientific) according to the manufacturer's instructions. For intracellular staining of cytoplasmic proteins, the Fixation/Permeabilization Solution Kit (BD Biosciences) was used according to the manufacturer's instructions. […] The cell pellets were washed again with FACS buffer, centrifuged at 300×g for 5 minutes, and incubated with antibodies in FACS buffer for 45 minutes-1 hour at room temperature. […] Treatment with sulfosuccinimidyl oleate (SSO) was performed by incubating cells with 100 μM SSO for 24 hours.

[5] = test system: human T cell and CD8^+ T cell treated with rhPD-L1; test: rhPD-L1 exhaustion assay of human T cells and CD8+ T cells; assay type: cell-based; settings: 20 μM TVA; 0.5 μg/mL rhPD-L1, 72 hours; IL-2, TNF-α
[6] = test system: anti-human CD19-CD28z-GFP CAR T cells; test: CAR-T cell expansion assay; assay type: cell-based; settings: 20 μM TVA
colon tumors = test: Colon tumorigenesis in Apc+/fl; Cdx-2P-Cre-NLS mice; assay type: in vivo, mouse; settings: gavage TVA 35 mg/kg bw daily×5 days for 4 wks; lipid rich diet
[7] = test system: tumor infiltrating immune cells; test: Tumor immune cell analysis (macrophages, CD8, Tregs, DCs); assay type: in vivo; settings: TVA treatment
human CD8^+ T cells = test: KAS-seq, human CD8+ T cells; assay type: cell-based; settings: 20 μM TVA, 20 min-2 h
Procedure: (§1) 500 mM N3-kethoxal was then supplemented into the media followed by brief, vigorous shaking to fully homogenize the solution. The 6-well plates were then moved into the cell incubator (37° C., 5% CO2) for 10 minutes to promote labeling of genomic single-stranded DNA (ssDNA). Cell suspensions were then transferred to 15 mL conical tubes and centrifuged at 300×g for 5 minutes at 4° C. The supernatant media was discarded, and genomic DNA was then extracted. […] Dual index libraries were constructed for high throughput sequencing using an Accel-NGS Methyl-seq DNA library kit and then sequenced at the Genomics Facility (University of Chicago) via Illumina NovaSeq 6000 (SP flowcell, 100 bp cassette) in two separate runs. […] M. musculus and H. sapiens CD8^+ T cell KAS-seq data were assessed separately.

mouse CD8^+ T cells [8] = test: KAS-seq, mouse CD8+ T cells; assay type: cell-based; settings: 20 μM TVA, 20 min-2 h
Procedure: as §1

Mouse CD4^+ T cell = test: Second screen: IL-2 level of mouse CD4+ T cells
Mouse CD8^+ T cell = test: Second screen: IL-2 level of mouse CD8+ T cells

CCCCCC/C=C/CCCCCCCCCC(=O)O [TVA, trans-vaccenic acid]
Mouse T cell IL-2 level changes after treatment (Mouse T cell): 183.5% | IL-2 production from mouse primary T cells (Mouse T cell; 20 μM TVA (FIG. 17A)): enhances IL-2 production | gene expression (RNA-seq, GSEA) (mouse CD8^+ T cells [1]): enhances expression of the genes enriched in effector CD8^+ T cell function, E2F and MYC pathways | body weights of mice (B16F10 tumor): did not alter body weights | average TVA level in tumor interstitial fluid (TIF) [2]: ~48 µM | average serum TVA level [2]: ~386 µM | p-CREB and p-STAT1 levels in tumor-infiltrating CD8+ T cells ([3]; B16F10 tumors from syngeneic mice fed on TVA): Increased p-CREB and p-STAT1 levels | CD4+ T cell population in TILs ([3]; TVA diet, B16F10 tumors): not altered | tumor-infiltrating populations of neutrophils and monocytes ([3]; TVA diet, B16F10 tumors): markedly increases tumor-infiltrating populations of neutrophils and monocytes | conventional CD4+ T cell or CD4+Foxp3+ Treg cell populations ([3]; TVA diet, spleens, dLNs and tumors of B16F10 tumor-bearing mice): has no effects on conventional CD4^+ T cell | cytokine expression in tumor-infiltrating CD8+ T cells ([3]; dietary TVA, B16F10 tumors): increased expression levels of cytokines including IL-2, TNF-α, and IFN-γ | exhaustion of CD8+ T cells (PD-1 and LAG-3 expression) ([3]; dietary TVA, tumors and spleens, not dLNs): reduces exhaustion of CD8^+ T cells in tumors and spleens | CD8+ T cell population in tumor-infiltrating lymphocytes (TILs) ([3]; enriched diet, B16F10 tumors): increased CD8^+ T cell population | TVA wash-off assay (TVAc vs TVAw) ([4]; 20 μM TVA 48 hours vs 24 hours then medium without TVA): effects are reversible | p-CREB level in CD8+ T cells, increasing concentrations ([4]; 8-Bromo-cAMP 0.01-100 μM or TVA 10-1000 μM, 24 hours): dose-dependent manner | reversal of SCFA-dependent suppression on CD8+ T cells ([4]; TVA 20 μM with SCFA agonists): able to reverse SCFA-dependent suppression on CD8^+ T cells | phosphorylation level of Lck (p-Lck) in CD8+ T cells ([4]; TVA treatment): does not alter phosphorylation level of Lck | phosphorylation of CREB in CD8+ T cells ([4]; TVA treatment): promotes phosphorylation of CREB | TNF-α and IFN-γ expression of primary CD8+ T cells ([4]; TVA treatment in vitro): increased expression of TNF-α and IFN-γ | suppression of CD8+ T cells by pre-treatment with 20 mM acetate (acetate first) ([4]; acetate 12 hours, then TVA 20 μM 12 hours): can be reversed by TVA at 20 μM | TVA level sufficient to reverse suppression of CD8+ T cells by acetate ([4]; acetate at 20 mM, TNF-α): ≤ 2 µM | exhaustion of primary human bulk T cells and CD8+ T cells treated with recombinant PD-L1 [5]: significantly reverses exhaustion | in vitro expansion of CAR T cells ([6]; 3 lymphoma patients with age between 42 and 47): improves in vitro expansion | in vitro expansion of CAR T cells ([6]; elder patient): do not respond to TVA treatment | tumorigenesis and tumor progression (tumor multiplicity, pathology) (colon tumors): Suppresses Tumorigenesis and Tumor Progression | anti-tumor immunity (CD8+ T cells, dendritic cells, Treg, TAMs) [7]: enhances anti-tumor immunity | GO enrichment of altered gene bodies (KAS-seq) (human CD8^+ T cells): G-protein coupled receptor (GPCR) activities among the top-enriched ontologies | GO enrichment of altered gene bodies (KAS-seq) (mouse CD8^+ T cells [8]): G-protein coupled receptor (GPCR) activities among the top-enriched ontologies | Mouse CD4^+ T cell IL-2 level changes after treatment (Mouse CD4^+ T cell): 155.6% | Mouse CD8^+ T cell IL-2 level changes after treatment (Mouse CD8^+ T cell): 193.6%
